We go through 23 compounds from patent US20240317718A1, “SUBSTITUTED HETEROCYCLIC COMPOUNDS” (BRISTOL-MYERS SQUIBB COMPANY, priority 2021, published 2024).

A short description of one data set: in vitro. The conditions noted are these: human, Caco-2, pH 7.4.
The subject of data set [1] is IFNα-induced pSTAT5 (Tyk2-mediated signal transduction). In words: IFNα-induced STAT phosphorylation in human whole blood. Type of data set: cell-based. Particulars: 1 h incubation with compound, 1000 U/mL IFNα A/D for 15 min, CD3 positive population, read-out: Human Whole blood IFNa pSTAT5 IC50. Here is the method:
IFNα-Induced STAT Phosphorylation in Human Whole Blood
After an hour long incubation with compound, human whole blood (drawn with ACD-A as anticoagulant) was stimulated with 1000 U/mL recombinant human IFNα A/D (R&D Systems 11200-2) for 15 min. The stimulation was stopped by adding Fix/Lyse buffer (BD 558049). Cells were stained with a CD3 FITC antibody (BD 555916), washed, and permeabilized on ice using Perm III buffer (BD 558050). Cells were then stained with an Alexa-Fluor 647 pSTAT5 (pY694) antibody (BD 612599) for 60 min prior to analysis on the iQue Plus. The amount of pSTAT5 expression was quantitated by median fluorescence intensity after gating on the CD3 positive population.

SMILES strings stand for the structures.

Take `[2H]C([2H])([2H])NC(=O)c1nnc(NC(=O)C2C[C@H]2C)cc1Nc1cccc(-c2nnn(C)n2)c1OC` (mixture of isomers) [Example 25, 4-{[2-methoxy-3-(2-methyl-2H-1,2,3,4-tetrazol-5-yl)phenyl]amino}-N-(^2H3)methyl-6-[(1R,2R)-2-methylcyclopropaneamido]pyridazine-3-carboxamide]: in “in vitro”, the Papp A→B at 2 h, 3 μM was determined as 23.3 ×10⁻⁶ cm/s and the efflux ratio at 2 h, 3 μM turned out to be 1.1. The IC50 in data set [1] was found to be 248 nM.

For the compound `[2H]C([2H])([2H])NC(=O)c1nnc(NC(=O)C2CC2)cc1Nc1cccc(-c2noc(CF)n2)c1OC` [Example 1, 6-(cyclopropanecarboxamido)-4-((3-(5-(fluoromethyl)-1,2,4-oxadiazol-3-yl)-2-methoxyphenyl)amino)-N-(methyl-d3)pyridazine-3-carboxamide], in the data set “in vitro”, the Papp A→B at 2 h, 3 μM is 65 ×10⁻⁶ cm/s and the efflux ratio at 2 h, 3 μM was 0.5. The half-inhibitory concentration (IC50) in data set [1] amounted to 34 nM.

In the case of `[2H]C([2H])([2H])NC(=O)c1nnc(NC(=O)C2CC2)cc1Nc1cccc(-c2noc(COC(C)C)n2)c1OC` [Example 2, 6-(cyclopropanecarboxamido)-4-((3-(5-(isopropoxymethyl)-1,2,4-oxadiazol-3-yl)-2-methoxyphenyl)amino)-N-(methyl-d3)pyridazine-3-carboxamide], in “in vitro”, the Papp A→B at 2 h, 3 μM worked out at 66.1 ×10⁻⁶ cm/s and the efflux ratio at 2 h, 3 μM was determined as 0.3. Further, in data set [1], the IC50 was found to be 13 nM.

With `CCOCc1nc(-c2cccc(Nc3cc(NC(=O)C4CC4)nnc3C(=O)NC)c2OC)no1` [Example 3, 6-cyclopropaneamido-4-({3-[5-(ethoxymethyl)-1,2,4-oxadiazol-3-yl]-2-methoxyphenyl}amino)-N-(^2H3)methylpyridazine-3-carboxamide], the IC50 in data set [1] was determined as 31 nM.

Take `CNC(=O)c1nnc(NC(=O)C2CC2)cc1Nc1cccc(-c2noc(CCOC)n2)c1OC` [Example 4, 6-cyclopropaneamido-4-({2-methoxy-3-[5-(2-methoxyethyl)-1,2,4-oxadiazol-3-yl]phenyl}amino)-N-(^2H3)methylpyridazine-3-carboxamide]: the IC50 in data set [1] stood at 9 nM.

On to `[2H]C([2H])([2H])NC(=O)c1nnc(NC(=O)C2CC2)cc1Nc1cccc(-c2noc(CCF)n2)c1OC` [Example 5, 6-(cyclopropanecarboxamido)-4-((3-(5-(2-fluoroethyl)-1,2,4-oxadiazol-3-yl)-2-methoxyphenyl)amino)-N-(methyl-d3)pyridazine-3-carboxamide], for which, in the data set “in vitro”, the Papp A→B at 2 h, 3 μM turned out to be 64 ×10⁻⁶ cm/s and the efflux ratio at 2 h, 3 μM amounted to 0.7. Besides, the IC50 in data set [1] worked out at 91 nM.

On to `[2H]C([2H])([2H])NC(=O)c1nnc(NC(=O)C2CC2)cc1Nc1cccc(-c2cocn2)c1OC` [Example 6, 6-(cyclopropanecarboxamido)-4-((2-methoxy-3-(oxazol-4-yl)phenyl)amino)-N-(methyl-d3)pyridazine-3-carboxamide], for which, in the data set “in vitro”, the Papp A→B at 2 h, 3 μM is 78.5 ×10⁻⁶ cm/s and the efflux ratio at 2 h, 3 μM stood at 0.5. Also, in data set [1], the IC50 amounted to 42 nM.

On to `[2H]C([2H])([2H])NC(=O)c1nnc(NC(=O)C2CC2)cc1Nc1cccc(-c2ccc(C(F)F)cn2)c1OC` [Example 7, 6-(cyclopropanecarboxamido)-4-((3-(5-(difluoromethyl)pyridin-2-yl)-2-methoxyphenyl)amino)-N-(methyl-d3)pyridazine-3-carboxamide], for which, in “in vitro”, the Papp A→B at 2 h, 3 μM came to 31.3 ×10⁻⁶ cm/s and the efflux ratio at 2 h, 3 μM was found to be 0.6. Besides, the IC50 in data set [1] is 431 nM.

`CNC(=O)c1nnc(NC(=O)C2CC2)cc1Nc1cccc(-c2cc(C)ncn2)c1OC` [Example 8, 6-cyclopropaneamido-4-{[2-methoxy-3-(6-methylpyrimidin-4-yl)phenyl]amino}-N-(^2H3)methylpyridazine-3-carboxamide]: in data set [1], the IC50 was determined as 248 nM.

On to `CNC(=O)c1nnc(NC(=O)C2CC2)cc1Nc1cccc(-c2ncns2)c1OC` [Example 9, 6-cyclopropaneamido-4-{[2-methoxy-3-(1,2,4-thiadiazol-5-yl)phenyl]amino}-N-(^2H3)methylpyridazine-3-carboxamide], for which, in data set [1], the IC50 turned out to be 161 nM.

As for `CNC(=O)c1nnc(NC(=O)C2CC2)cc1Nc1cccc(-c2cnc(F)cn2)c1OC` [Example 10, 6-cyclopropaneamido-4-{[3-(5-fluoropyrazin-2-yl)-2-methoxyphenyl]amino}-N-(^2H3)methylpyridazine-3-carboxamide], the IC50 in data set [1] worked out at 219 nM.

Consider `CNC(=O)c1nnc(NC(=O)C2CC2)cc1Nc1cccc(-c2cnc(C3CC3)cn2)c1OC` [Example 11, 6-cyclopropaneamido-4-{[3-(5-cyclopropylpyrazin-2-yl)-2-methoxyphenyl]amino}-N-(^2H3)methylpyridazine-3-carboxamide], for which the IC50 in data set [1] came out at 165 nM.

As to `CNC(=O)c1nnc(NC(=O)C2CC2)cc1Nc1cccc(-c2cnc([N+](=O)[O-])cn2)c1OC` [Example 12, 6-cyclopropaneamido-4-{[2-methoxy-3-(5-nitropyrazin-2-yl)phenyl]amino}-N-(^2H3)methylpyridazine-3-carboxamide], the IC50 in data set [1] was 44 nM.

Take `CNC(=O)c1nnc(NC(=O)C2CC2)cc1Nc1cccc(-c2nc(C)ns2)c1OC` [Example 13, 6-cyclopropaneamido-4-{[2-methoxy-3-(3-methyl-1,2,4-thiadiazol-5-yl)phenyl]amino}-N-(^2H3)methylpyridazine-3-carboxamide]: in data set [1], the IC50 was found to be 51 nM.

`[2H]C([2H])([2H])NC(=O)c1nnc(NC(=O)C2CC2)cc1Nc1cc(C)cc(-c2cnc(C3(O)CCC3)cn2)c1OC` [Example 14, 6-(cyclopropanecarboxamido)-4-((3-(5-(1-hydroxycyclobutyl)pyrazin-2-yl)-2-methoxy-5-methylphenyl)amino)-N-(methyl-d3)pyridazine-3-carboxamide]: in “in vitro”, the Papp A→B at 2 h, 3 μM came to 37.8 ×10⁻⁶ cm/s and the efflux ratio at 2 h, 3 μM was 0.9. The IC50 in data set [1] was found to be 148 nM.

Turning to `[2H]C([2H])([2H])NC(=O)c1nnc(NC(=O)C2CC2)cc1Nc1cc(F)cc(-c2cnc(C3(O)CCC3)cn2)c1OC` [Example 15, 6-cyclopropaneamido-4-({5-fluoro-3-[5-(1-hydroxycyclobutyl)pyrazin-2-yl]-2-methoxyphenyl}amino)-N-(^2H3)methylpyridazine-3-carboxamide], in “in vitro”, the Papp A→B at 2 h, 3 μM came to 30.9 ×10⁻⁶ cm/s and the efflux ratio at 2 h, 3 μM stood at 1. The IC50 in data set [1] came out at 99 nM.

For `[2H]C([2H])([2H])NC(=O)c1nnc(NC(=O)C2CC2)cc1Nc1cc(F)cc(-c2cnc(C3CC3)cn2)c1OC` [Example 16, 6-(cyclopropanecarboxamido)-4-((3-(5-cyclopropylpyrazin-2-yl)-5-fluoro-2-methoxyphenyl)amino)-N-(methyl-d3)pyridazine-3-carboxamide], in the data set “in vitro”, the Papp A→B at 2 h, 3 μM worked out at 19.4 ×10⁻⁶ cm/s and the efflux ratio at 2 h, 3 μM was determined as 0.5. Besides, the IC50 in data set [1] amounted to 197 nM.

With `[2H]C([2H])([2H])NC(=O)c1nnc(NC(=O)C2CC2)cc1Nc1cccc(-c2coc(C)n2)c1OC` [Example 17, 6-(cyclopropanecarboxamido)-4-((2-methoxy-3-(2-methyloxazol-4-yl)phenyl)amino)-N-(methyl-d3)pyridazine-3-carboxamide], in “in vitro”, the apical-to-basolateral permeability (Papp A→B) at 2 h, 3 μM was 47.4 ×10⁻⁶ cm/s and the efflux ratio at 2 h, 3 μM was determined as 0.4. Moreover, in data set [1], the IC50 turned out to be 63 nM.

As for `[2H]C([2H])([2H])NC(=O)c1nnc(NC(=O)C2CC2)cc1Nc1cccc(-c2nc(C)oc2C)c1OC` [Example 18, 6-cyclopropaneamido-4-{[3-(2,5-dimethyl-1,3-oxazol-4-yl)-2-methoxyphenyl]amino}-N-(^2H3)methylpyridazine-3-carboxamide], in the data set “in vitro”, the Papp A→B at 2 h, 3 μM turned out to be 25.9 ×10⁻⁶ cm/s and the efflux ratio at 2 h, 3 μM was 0.7. In addition, the IC50 in data set [1] turned out to be 152 nM.

As to `[2H]C([2H])([2H])NC(=O)c1nnc(NC(=O)C2CC2)cc1Nc1cccc(-c2noc(C(F)F)n2)c1OC` [Example 19, 6-(cyclopropanecarboxamido)-4-((3-(5-(difluoromethyl)-1,2,4-oxadiazol-3-yl)-2-methoxyphenyl)amino)-N-(methyl-d3)pyridazine-3-carboxamide], in “in vitro”, the Papp A→B at 2 h, 3 μM stood at 17 ×10⁻⁶ cm/s and the efflux ratio at 2 h, 3 μM worked out at 0.6. In addition, the IC50 in data set [1] is 69 nM.

Turning to `[2H]C([2H])([2H])NC(=O)c1nnc(NC(=O)C2CC2)cc1Nc1nccc(-c2cnc(C(C)(C)O)cn2)c1OC` [Example 20, 6-(cyclopropanecarboxamido)-4-((4-(5-(2-hydroxypropan-2-yl)pyrazin-2-yl)-3-methoxypyridin-2-yl)amino)-N-(methyl-d3)pyridazine-3-carboxamide], in the data set “in vitro”, the Papp A→B at 2 h, 3 μM is 18.8 ×10⁻⁶ cm/s and the efflux ratio at 2 h, 3 μM amounted to 2.9. Moreover, the IC50 in data set [1] was determined as 148 nM.

In the case of `[2H]C([2H])([2H])NC(=O)c1nnc(NC(=O)C2CC2)cc1Nc1cccc(-c2csc(C)n2)c1OC` [Example 21, 6-cyclopropaneamido-4-{[2-methoxy-3-(2-methyl-1,3-thiazol-4-yl)phenyl]amino}-N-(^2H3)methylpyridazine-3-carboxamide], in “in vitro”, the Papp A→B at 2 h, 3 μM worked out at 14.1 ×10⁻⁶ cm/s and the efflux ratio at 2 h, 3 μM is 0.7. Moreover, in data set [1], the IC50 is 385 nM.

In the case of `[2H]C([2H])([2H])NC(=O)c1nnc(NC(=O)C2CC2)cc1Nc1cccc(-c2cnc(OC)cn2)c1OC` [Example 22, 6-cyclopropaneamido-4-{[2-methoxy-3-(5-methoxypyrazin-2-yl)phenyl]amino}-N-(^2H3)methylpyridazine-3-carboxamide], in “in vitro”, the Papp A→B at 2 h, 3 μM is 32.3 ×10⁻⁶ cm/s and the efflux ratio at 2 h, 3 μM is 0.6. The IC50 in data set [1] was 410 nM.
